{"source": "ChEMBL document CHEMBL4834434", "about": "“Discovery of Novel and Potent N-Methyl-d-aspartate Receptor Positive Allosteric Modulators with Antidepressant-like Activity in Rodent Models” (J Med Chem, 2021)", "key": {"[1]": {"target": "Glutamate NMDA receptor (Mus musculus) (UniProt P35436+Q91ZU9+Q03391+P35438+Q01097+Q01098+A2AIR5)", "assay": "Positive allosteric modulation of C57BL/6 mouse NMDA receptor assessed as fold change in compound potentiated NMDA-induced current relative to NMDA current alone at 30 uM measured after 15 to 30 mins by patch-clamp method", "type": "tissue-based", "details": "Brain, filed as positive allosteric modulator, time 15-30 min"}, "[2]": {"assay": "Brain to blood partition coefficient of the compound", "type": "physicochemical, tissue-based", "details": "read-out: logBB (converted)"}, "Mus musculus [3]": {"tested_on": "Mus musculus", "assay": "Antidepressant activity in ICR mouse assessed as decrease in immobility time at 30 mg/kg, ip measured after 26 mins by forced swim test", "type": "functional, organism-based"}, "Mus musculus [4]": {"tested_on": "Mus musculus", "assay": "Antidepressant activity in ICR mouse assessed as decrease in immobility time at 3 to 10 mg/kg, ip measured after 26 mins by forced swim test", "type": "functional, organism-based", "details": "dose 3-10 mg/kg"}, "Mus musculus [5]": {"tested_on": "Mus musculus", "assay": "Antidepressant activity in ICR mouse aassessed as inhibition of apomorphine-induced climbing behaviour at 10 mg/kg, ip administered prior to APO challenge and measured after 30 mins", "type": "functional, organism-based"}, "[6]": {"target": "Adrenergic receptor alpha-1 (Rattus norvegicus) (UniProt P15823+P23944+P43140)", "assay": "Displacement of [3H]-prazosin from rat adrenergic alpha 1 receptor incubated for 60 mins by liquid scintillation counting analysis", "type": "protein assay"}, "[7]": {"target": "5-hydroxytryptamine receptor 1A (Homo sapiens) (UniProt P08908)", "sequence (P08908 whole entry)": "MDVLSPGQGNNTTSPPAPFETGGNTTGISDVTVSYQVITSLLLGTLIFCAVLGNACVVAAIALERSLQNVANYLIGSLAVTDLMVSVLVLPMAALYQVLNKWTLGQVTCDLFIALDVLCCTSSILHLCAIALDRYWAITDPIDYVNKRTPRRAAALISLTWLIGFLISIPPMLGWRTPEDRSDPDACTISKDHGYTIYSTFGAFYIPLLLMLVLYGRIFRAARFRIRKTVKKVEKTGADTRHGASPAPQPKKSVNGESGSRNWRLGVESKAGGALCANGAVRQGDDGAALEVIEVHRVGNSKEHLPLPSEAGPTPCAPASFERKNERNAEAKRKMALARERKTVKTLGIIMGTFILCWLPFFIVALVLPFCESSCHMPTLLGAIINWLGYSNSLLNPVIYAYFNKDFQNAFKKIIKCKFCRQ", "assay": "Displacement of [3H]-8-OH-DPAT from human 5HT1AR expressed in CHO cells incubated for 30 mins by liquid scintillation counting analysis", "type": "cell-based"}, "[8]": {"target": "5-hydroxytryptamine receptor 2C (Rattus norvegicus) (UniProt P08909)", "sequence (P08909 whole entry)": "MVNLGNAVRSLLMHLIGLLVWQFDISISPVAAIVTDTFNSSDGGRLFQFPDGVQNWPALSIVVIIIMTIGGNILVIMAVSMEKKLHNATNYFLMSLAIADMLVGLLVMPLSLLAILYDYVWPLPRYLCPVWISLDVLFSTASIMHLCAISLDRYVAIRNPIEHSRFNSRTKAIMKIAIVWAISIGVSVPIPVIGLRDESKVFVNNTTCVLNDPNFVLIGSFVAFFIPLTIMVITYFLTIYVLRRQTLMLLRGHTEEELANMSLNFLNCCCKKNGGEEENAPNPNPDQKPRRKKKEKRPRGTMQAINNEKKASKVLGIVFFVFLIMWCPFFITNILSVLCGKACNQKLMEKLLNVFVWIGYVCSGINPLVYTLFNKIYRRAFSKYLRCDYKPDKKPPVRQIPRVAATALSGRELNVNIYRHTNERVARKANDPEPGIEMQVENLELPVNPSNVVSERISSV", "assay": "Displacement of [3H]-mesulergine from rat cerebral cortex 5HT2CR incubated for 15 mins by liquid scintillation counting analysis", "type": "tissue-based"}, "[9]": {"target": "5-hydroxytryptamine receptor 6 (Homo sapiens) (UniProt P50406)", "sequence (P50406 whole entry)": "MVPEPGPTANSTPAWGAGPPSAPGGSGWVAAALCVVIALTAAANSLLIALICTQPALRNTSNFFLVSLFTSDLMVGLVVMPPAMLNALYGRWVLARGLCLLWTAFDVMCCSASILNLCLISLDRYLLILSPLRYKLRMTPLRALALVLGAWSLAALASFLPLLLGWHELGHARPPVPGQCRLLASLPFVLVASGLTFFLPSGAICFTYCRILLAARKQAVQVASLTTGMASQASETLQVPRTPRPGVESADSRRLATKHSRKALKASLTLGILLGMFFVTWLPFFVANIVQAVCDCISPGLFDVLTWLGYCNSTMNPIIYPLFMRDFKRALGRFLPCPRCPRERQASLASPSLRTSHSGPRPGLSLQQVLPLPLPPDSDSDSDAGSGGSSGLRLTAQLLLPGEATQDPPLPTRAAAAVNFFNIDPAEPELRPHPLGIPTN", "assay": "Displacement of [3H]-LSD from human 5HT6 incubated for 30 mins by liquid scintillation counting analysis"}, "[10]": {"target": "Sodium-dependent serotonin transporter (Homo sapiens) (UniProt P31645)", "sequence (P31645 whole entry, looked up)": "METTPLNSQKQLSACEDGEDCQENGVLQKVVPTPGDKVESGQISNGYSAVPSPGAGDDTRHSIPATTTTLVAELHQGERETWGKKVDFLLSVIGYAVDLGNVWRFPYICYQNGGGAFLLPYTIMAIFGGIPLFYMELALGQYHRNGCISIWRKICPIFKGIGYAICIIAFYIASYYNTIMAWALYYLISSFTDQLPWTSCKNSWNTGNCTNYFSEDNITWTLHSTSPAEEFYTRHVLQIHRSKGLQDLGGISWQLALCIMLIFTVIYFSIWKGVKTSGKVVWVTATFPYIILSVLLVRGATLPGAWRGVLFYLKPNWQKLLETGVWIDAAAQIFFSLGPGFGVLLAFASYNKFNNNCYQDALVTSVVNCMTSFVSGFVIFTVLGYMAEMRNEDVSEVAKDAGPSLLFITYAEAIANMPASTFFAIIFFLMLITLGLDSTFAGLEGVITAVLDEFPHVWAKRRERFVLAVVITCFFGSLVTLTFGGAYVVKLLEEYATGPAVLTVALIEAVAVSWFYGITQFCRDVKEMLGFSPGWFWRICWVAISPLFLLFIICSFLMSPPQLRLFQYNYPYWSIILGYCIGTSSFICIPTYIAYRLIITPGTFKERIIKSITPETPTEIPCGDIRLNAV", "assay": "Displacement of [3H]-paroxetine from SERT (unknown origin)", "parameters": "dose or concentration left out as unconfirmed"}, "[11]": {"assay": "Half life in ICR mouse at 3 mg/kg, iv measured up to 24 hrs by HPLC-MS/MS analysis", "type": "ADME, organism-based", "details": "in vivo"}, "[12]": {"assay": "Volume of distribution at steady state in ICR mouse at 3 mg/kg, iv measured up to 24 hrs by HPLC-MS/MS analysis", "type": "ADME, organism-based", "details": "in vivo, read-out: Vdss"}, "[13]": {"assay": "Drug concentration in ICR mouse plasma at 3 mg/kg, iv measured at 0.5 hrs by LC-MS/MS analysis", "type": "ADME, organism-based"}, "[14]": {"assay": "Drug concentration in ICR mouse plasma at 3 mg/kg, iv measured at 2 hrs", "type": "ADME, organism-based"}, "[15]": {"assay": "Ratio of drug concentration in brain to plasma in ICR mouse at 3 mg/kg, iv measured at 2 hrs by LC-MS/MS analysis", "type": "ADME, organism-based", "details": "read-out: BPR"}, "[16]": {"assay": "Cmax in ICR mouse at 10 mg/kg, po measured up to 24 hrs by HPLC-MS/MS analysis", "type": "ADME, organism-based", "parameters": "route oral, dose 10 mg/kg, time <=24", "details": "in vivo"}, "[17]": {"assay": "AUC (0 to t) in ICR mouse at 10 mg/kg, po measured up to 24 hrs by HPLC-MS/MS analysis", "type": "ADME, organism-based", "parameters": "route oral, dose 10 mg/kg, time <=24", "details": "in vivo"}, "[18]": {"assay": "Oral bioavailability in ICR mouse at 10 mg/kg measured up to 24 hrs by HPLC-MS/MS analysis", "type": "ADME, organism-based", "details": "in vivo"}, "[19]": {"assay": "Drug concentration in ICR mouse brain at 10 mg/kg, po measured at 0.5 hrs by LC-MS/MS analysis", "type": "ADME, organism-based", "details": "read-out: Ct"}, "[20]": {"assay": "Drug concentration in ICR mouse plasma at 10 mg/kg, po measured at 2 hrs by LC-MS/MS analysis", "type": "ADME, organism-based"}, "[21]": {"assay": "Ratio of drug concentration in brain to plasma in ICR mouse at 10 mg/kg, po measured at 2 hrs by LC-MS/MS analysis", "type": "ADME, organism-based", "details": "read-out: BPR"}, "[22]": {"assay": "Cmax in Sprague-Dawley rat at 3 mg/kg, iv measured up to 1280 mins by HPLC-MS/MS analysis", "type": "ADME, organism-based", "parameters": "route intravenous, dose 3 mg/kg, time <=1280", "details": "in vivo"}, "[23]": {"assay": "Volume of distribution at steady state in Sprague-Dawley rat at 3 mg/kg, iv measured up to 1280 mins by HPLC-MS/MS analysis", "type": "ADME, organism-based", "details": "in vivo"}, "[24]": {"assay": "AUC (0 to t) in Sprague-Dawley rat at 3 mg/kg, iv measured up to 1280 mins by HPLC-MS/MS analysis", "type": "ADME, organism-based", "parameters": "route intravenous, dose 3 mg/kg, time <=1280", "details": "in vivo"}, "[25]": {"assay": "Cmax in Sprague-Dawley rat at 10 mg/kg, po measured up to 1280 mins by HPLC-MS/MS analysis", "type": "ADME, organism-based", "parameters": "route oral, dose 10 mg/kg, time <=1280", "details": "in vivo"}, "[26]": {"assay": "Tmax in Sprague-Dawley rat at 10 mg/kg, po measured up to 1280 mins by HPLC-MS/MS analysis", "type": "ADME, organism-based", "details": "in vivo"}, "[27]": {"assay": "AUC (0 to t) in Sprague-Dawley rat at 10 mg/kg, po measured up to 1280 mins by HPLC-MS/MS analysis", "type": "ADME, organism-based", "parameters": "route oral, dose 10 mg/kg, time <=1280", "details": "in vivo"}, "[28]": {"assay": "Drug concentration in Sprague-Dawley rat brain at 3 mg/kg, iv measured at 20 mins by LC-MS/MS analysis", "type": "ADME, organism-based", "details": "read-out: Ct"}, "[29]": {"assay": "Drug concentration in Sprague-Dawley rat brain at 3 mg/kg, iv measured at 80 mins by LC-MS/MS analysis", "type": "ADME, organism-based", "details": "read-out: Ct"}, "[30]": {"assay": "Drug concentration in Sprague-Dawley rat plasma at 3 mg/kg, iv measured at 80 mins by LC-MS/MS analysis", "type": "ADME, organism-based"}, "[31]": {"assay": "Ratio of drug concentration in brain to plasma in Sprague-Dawley rat at 3 mg/kg, iv measured at 20 mins by LC-MS/MS analysis", "type": "ADME, organism-based", "details": "read-out: BPR"}, "[32]": {"assay": "Cytotoxicity against African green monkey Vero cells assessed as cell growth inhibition at 120 uM measured after 48 hrs by CCK8 assay relative to control", "type": "cell-based", "details": "chlorocebus sabaeus"}, "[33]": {"assay": "Cytotoxicity against African green monkey Vero cells assessed as cell growth inhibition at 60 uM measured after 48 hrs by CCK8 assay relative to control", "type": "cell-based", "details": "chlorocebus sabaeus"}, "[34]": {"assay": "Cytotoxicity against mouse L929 cells assessed as cell growth inhibition at 120 uM measured after 48 hrs by CCK8 assay relative to control", "type": "cell-based"}, "[35]": {"assay": "Cytotoxicity against human HEK293 cells assessed as cell growth inhibition at 120 uM measured after 48 hrs by CCK8 assay relative to control", "type": "cell-based"}, "[36]": {"assay": "Cytotoxicity against human HEK293 cells assessed as cell growth inhibition at 60 uM measured after 48 hrs by CCK8 assay relative to control", "type": "cell-based"}, "[37]": {"assay": "Acute toxicity in ip dosed ICR mouse assessed as lethal dose measured after 24 hrs", "type": "organism-based", "details": "in vivo"}, "[38]": {"assay": "[…] in ICR mouse assessed as body weight gain at 30 mg/kg, po administered for 28 days", "type": "organism-based", "details": "in vivo, 672 h, time 28 day"}, "[39]": {"assay": "[…] in ICR mouse assessed as change in behaviour at 30 mg/kg, po administered for 28 days", "type": "organism-based", "details": "in vivo, 672 h, time 28 day"}}, "note": "Activity calls are given as the source filed them. The calls are words filed in the database; no cut-off is given here.", "data": [{"smiles": "Cc1cc(C)n(Cc2ccc(C(=O)Nc3ccc(Cl)c(Cl)c3)s2)n1", "values": [{"measurement": "fold change (FC)", "setting": "[1]", "result": 12.5}, {"measurement": "Kp", "setting": "[2]", "result": 1.26}, {"measurement": "Activity", "setting": "Mus musculus [3]", "result": "Active"}, {"measurement": "Activity", "setting": "Mus musculus [4]", "result": "Active"}, {"measurement": "Activity", "setting": "Mus musculus [5]", "result": "inactive"}, {"measurement": "inhibition", "setting": "[6]", "result": "inactive"}, {"measurement": "inhibition", "setting": "[7]", "result": "inactive"}, {"measurement": "inhibition", "setting": "[8]", "result": "inactive"}, {"measurement": "inhibition", "setting": "[9]", "result": "inactive"}, {"measurement": "inhibition", "setting": "[10]", "result": "inactive"}, {"measurement": "half-life", "setting": "[11]", "result": 2.8, "unit": "h"}, {"measurement": "Vd", "setting": "[12]", "result": 8.3, "unit": "L/kg"}, {"measurement": "concentration at 0.5 h", "setting": "[13]", "result": 389, "unit": "ng/mL"}, {"measurement": "concentration at 2 h", "setting": "[14]", "result": 2940, "unit": "ng/mL"}, {"measurement": "Kp at 2 h", "setting": "[15]", "result": 0.34}, {"measurement": "Cmax", "setting": "[16]", "result": 760, "unit": "ng/mL"}, {"measurement": "AUC(0-t) at 24 h", "setting": "[17]", "result": 3050, "unit": "ng·h/mL"}, {"measurement": "bioavailability", "setting": "[18]", "result": 63.3, "unit": "%"}, {"measurement": "concentration at 0.5 h", "setting": "[19]", "result": 281, "unit": "ng/mL"}, {"measurement": "concentration at 2 h", "setting": "[20]", "result": 451, "unit": "ng/mL"}, {"measurement": "Kp at 2 h", "setting": "[21]", "result": 0.38}, {"measurement": "Cmax", "setting": "[22]", "result": 2350, "unit": "ng/mL"}, {"measurement": "Vdss", "setting": "[23]", "result": 1.27, "unit": "L/kg"}, {"measurement": "AUC(0-t) at 1280 min", "setting": "[24]", "result": 1820, "unit": "ng·h/mL"}, {"measurement": "Cmax", "setting": "[25]", "result": 190, "unit": "ng/mL"}, {"measurement": "Tmax", "setting": "[26]", "result": 0.555, "unit": "h"}, {"measurement": "AUC(0-t) at 1280 min", "setting": "[27]", "result": 503, "unit": "ng·h/mL"}, {"measurement": "concentration at 20 min", "setting": "[28]", "result": 2190, "unit": "ng/g"}, {"measurement": "concentration at 1.333 h", "setting": "[29]", "result": 354, "unit": "ng/g"}, {"measurement": "concentration at 1.333 h", "setting": "[30]", "result": 239, "unit": "ng/mL"}, {"measurement": "Kp at 20 min", "setting": "[31]", "result": 1.5}, {"measurement": "inhibition at 48 h, 120 µM", "setting": "[32]", "result": 22.6, "unit": "%"}, {"measurement": "inhibition at 48 h, 60 µM", "setting": "[33]", "result": 21.9, "unit": "%"}, {"measurement": "inhibition at 48 h, 120 µM", "setting": "[34]", "result": -4.6, "unit": "%"}, {"measurement": "inhibition at 48 h, 120 µM", "setting": "[35]", "result": -14, "unit": "%"}, {"measurement": "inhibition at 48 h, 60 µM", "setting": "[36]", "result": -5.2, "unit": "%"}, {"measurement": "LD50 at 24 h", "setting": "[37]", "result": 1500, "unit": "mg/kg"}, {"measurement": "Activity", "setting": "[38]", "result": "Non-Toxic"}, {"measurement": "Activity", "setting": "[39]", "result": "Non-Toxic"}]}]}
